The values below come from patent US11149037B2, “Pyrazole MAGL inhibitors” (H. Lundbeck A/S, priority 2017, dated 2021).

The target of experiment [1] is T1, FAAH (Mus musculus (Mouse), UniProt O08914). In words: In vitro competitive activity-based protein profiling, mouse proteomes (brain membrane fraction or cell lysates). It counts as biochemical. The following applies: mouse proteome, read-out: FAAH % inh. 1 μM (mouse). The procedure, abridged:
(§1)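 Activity of MAGL and FAAH was quantified from fluorescent gel band intensities. Beforehand, inhibitors at several concentrations competed against subsequent probe labelling (FP-Rh, JW912 or HT-01) in species-matched proteomes, each step 30 min at 37° C.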

In experiment [2] the target is T2, MAGL (Mus musculus (Mouse), UniProt O35678). The experiment is described as above. It counts as biochemical. The following applies: mouse proteome, read-out: MAGL % inh. 1 μM (mouse). The procedure, abridged:
as §1

Experiment [3] addresses MAGL (Homo sapiens (Human), UniProt Q99685). In words: In vitro competitive activity-based protein profiling, human proteomes (prefrontal cortex or PC3 cell membrane fractions). The following applies: human proteome; for inhibition at 1 µM: read-out: MAGL % inh. 1 μM (human). It counts as biochemical. The method in brief:
as §1

Experiment [4] addresses FAAH (Homo sapiens (Human), UniProt O00519). The description is as above. It counts as biochemical. As to conditions: human proteome; for inhibition at 1 µM: read-out: FAAH % inh. 1 μM (human). The procedure, abridged:
as §1

Experiment [5] concerns the target T1, FAAH. In words: Mouse brain proteomes from inhibitor treated mice (oral gavage, sacrificed 4 h after administration). Type of experiment: in vivo. The following applies: 5 mg/kg oral gavage. The method, then:
(§2) Preparation of Mouse Brain Proteomes from Inhibitor Treated Mice.
(§3) Inhibitors were administered to wild-type C57B1/6J by oral gavage in a vehicle of polyethylene glycol. Each animal was sacrificed 4 h following administration and brain proteomes were prepared and analyzed according to previously established methods (See Niphakis, M. J., et al. (2011) ACS Chem. Neurosci. and Long, J. Z., et al. Nat. Chem. Biol. 5:37-44).

Experiment [6] concerns the target T2, MAGL. The experiment is described as above. Type of experiment: in vivo. The following applies: 5 mg/kg oral gavage. The method, then:
as §2, §3

T1 sequence (O08914 whole entry): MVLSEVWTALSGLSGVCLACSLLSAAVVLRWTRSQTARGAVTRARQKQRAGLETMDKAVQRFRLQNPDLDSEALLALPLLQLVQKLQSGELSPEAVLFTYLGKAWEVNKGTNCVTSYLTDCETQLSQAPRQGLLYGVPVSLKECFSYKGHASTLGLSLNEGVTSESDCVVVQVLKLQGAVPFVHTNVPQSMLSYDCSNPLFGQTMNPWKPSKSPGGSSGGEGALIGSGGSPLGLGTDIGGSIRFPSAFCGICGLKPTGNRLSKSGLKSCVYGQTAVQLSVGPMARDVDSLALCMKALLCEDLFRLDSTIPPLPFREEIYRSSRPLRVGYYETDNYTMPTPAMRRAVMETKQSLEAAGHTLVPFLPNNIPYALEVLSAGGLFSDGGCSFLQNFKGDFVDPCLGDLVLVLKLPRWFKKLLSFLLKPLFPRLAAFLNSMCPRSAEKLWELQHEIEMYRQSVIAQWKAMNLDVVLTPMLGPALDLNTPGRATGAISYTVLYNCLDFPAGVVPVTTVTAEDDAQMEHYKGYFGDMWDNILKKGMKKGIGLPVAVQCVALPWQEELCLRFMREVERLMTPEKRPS
T2 sequence (O35678 whole entry): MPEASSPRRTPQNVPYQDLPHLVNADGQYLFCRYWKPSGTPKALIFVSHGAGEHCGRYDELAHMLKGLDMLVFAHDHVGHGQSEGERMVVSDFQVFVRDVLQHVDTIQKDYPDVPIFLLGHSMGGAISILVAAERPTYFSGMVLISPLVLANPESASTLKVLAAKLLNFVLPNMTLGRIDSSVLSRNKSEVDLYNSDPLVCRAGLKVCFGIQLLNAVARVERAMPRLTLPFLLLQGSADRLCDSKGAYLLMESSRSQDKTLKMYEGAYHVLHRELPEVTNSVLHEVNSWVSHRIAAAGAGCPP
MAGL (Homo sapiens (Human), UniProt Q99685), sequence (Q99685 whole entry): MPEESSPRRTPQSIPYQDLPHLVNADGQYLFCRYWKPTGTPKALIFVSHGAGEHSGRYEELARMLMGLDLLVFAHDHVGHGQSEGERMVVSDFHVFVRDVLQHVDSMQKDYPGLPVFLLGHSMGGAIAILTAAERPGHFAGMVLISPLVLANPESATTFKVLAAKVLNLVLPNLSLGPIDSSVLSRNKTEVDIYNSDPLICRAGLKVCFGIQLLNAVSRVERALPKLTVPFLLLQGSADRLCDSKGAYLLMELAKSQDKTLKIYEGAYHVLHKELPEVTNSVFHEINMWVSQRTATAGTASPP
FAAH (Homo sapiens (Human), UniProt O00519), sequence (O00519 whole entry): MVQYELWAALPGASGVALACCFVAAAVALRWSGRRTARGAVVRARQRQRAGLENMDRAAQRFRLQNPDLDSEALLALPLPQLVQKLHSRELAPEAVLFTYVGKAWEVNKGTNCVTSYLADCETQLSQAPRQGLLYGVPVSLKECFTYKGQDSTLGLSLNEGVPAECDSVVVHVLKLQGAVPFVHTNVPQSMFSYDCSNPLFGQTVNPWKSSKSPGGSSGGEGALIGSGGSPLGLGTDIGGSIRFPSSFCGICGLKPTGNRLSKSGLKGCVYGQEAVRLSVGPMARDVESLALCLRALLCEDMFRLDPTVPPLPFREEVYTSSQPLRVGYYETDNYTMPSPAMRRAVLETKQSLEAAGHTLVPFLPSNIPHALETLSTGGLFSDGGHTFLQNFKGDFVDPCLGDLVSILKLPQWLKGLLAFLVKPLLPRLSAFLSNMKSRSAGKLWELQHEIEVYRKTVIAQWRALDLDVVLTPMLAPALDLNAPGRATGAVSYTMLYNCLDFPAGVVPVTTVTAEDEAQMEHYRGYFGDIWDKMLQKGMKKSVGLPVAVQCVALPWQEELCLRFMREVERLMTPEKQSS

Regarding `C[C@@H]1CN(C(=O)n2ccc(NS(C)(=O)=O)n2)CCN1Cc1ccc(Cl)c(N2CC3COCC3C2)c1` (stereo partly drawn) [Example 133, N-(1-((3R)-4-(4-Chloro-3-(tetrahydro-1H-furo[3,4-c]pyrrol-5(3H)-yl)benzyl)-3-methylpiperazine-1-carbonyl)-1H-pyrazol-3-yl)methanesulfonamide], the inhibition at 1 µM at FAAH [1] is 0 to 25%; on MAGL [2], above 75%; at MAGL [3], above 75%; at FAAH [4] it was 0 to 25%. Besides, on FAAH [5], the “FAAH % inh. 5 mg/kg (mouse)” value was “D (% inhibition is greater than or equal to 0% and less than 25%)”. In addition, on MAGL [6], the “MAGL % inh. 5 mg/kg (mouse)” value was “D (% inhibition is greater than or equal to 0% and less than 25%)”.
Take `CS(=O)(=O)Nc1ccn(C(=O)N2CC[C@H](Oc3ccc(C(F)(F)F)c(N4CCC(F)CC4)c3)[C@H](F)C2)n1` [Example 134, N-(1-((3R,4S)-3-Fluoro-4-(3-(4-fluoropiperidin-1-yl)-4-(trifluoromethyl)phenoxy)piperidine-1-carbonyl)-1H-pyrazol-3-yl)methanesulfonamide]: the inhibition at 1 µM on FAAH [1] is 0 to 25%; at MAGL [2], above 75%; on MAGL [3] it was above 75%; at FAAH [4], 0 to 25%. In addition, on FAAH [5], the “FAAH % inh. 5 mg/kg (mouse)” value is “D (% inhibition is greater than or equal to 0% and less than 25%)”. In addition, the “MAGL % inh. 5 mg/kg (mouse)” value at MAGL [6] was “C (% inhibition is greater than or equal to 25% and less than 50%)”.
As to `C[C@H]1CN(Cc2ccc(Cl)c(N3CC4COCC4C3)c2)CCN1C(=O)n1ccc(NS(C)(=O)=O)n1` (stereo partly drawn) [Example 135, N-(1-((2S)-4-(4-Chloro-3-(tetrahydro-1H-furo[3,4-c]pyrrol-5(3H)-yl)benzyl)-2-methylpiperazine-1-carbonyl)-1H-pyrazol-3-yl)methanesulfonamide], the inhibition at 1 µM on FAAH [1] was 0 to 25%; at MAGL [2] it was above 75%; at MAGL [3], above 75%; on FAAH [4] it was 0 to 25%. Besides, the “FAAH % inh. 5 mg/kg (mouse)” value at FAAH [5] is “D (% inhibition is greater than or equal to 0% and less than 25%)”. Besides, the “MAGL % inh. 5 mg/kg (mouse)” value on MAGL [6] was “D (% inhibition is greater than or equal to 0% and less than 25%)”.
On to `C[C@H]1CN(Cc2ccc(Cl)c(N3CCC(F)CC3)c2)CCN1C(=O)n1ccc(NS(C)(=O)=O)n1` [Example 136, (S)-N-(1-(4-(4-Chloro-3-(4-fluoropiperidin-1-yl)benzyl)-2-methylpiperazine-1-carbonyl)-1H-pyrazol-3-yl)methanesulfonamide], for which the inhibition at 1 µM at FAAH [1] is 0 to 25%; at MAGL [2] it was above 75%; on MAGL [3], above 75%; on FAAH [4], 0 to 25%. Also, on FAAH [5], the “FAAH % inh. 5 mg/kg (mouse)” value is “D (% inhibition is greater than or equal to 0% and less than 25%)”. Further, on MAGL [6], the “MAGL % inh. 5 mg/kg (mouse)” value was “A (% inhibition is greater than or equal to 75%)”.
With `C[C@@H]1CN(Cc2ccc(Cl)c(N3CC4COCC4C3)c2)CCN1C(=O)n1ccc(NS(C)(=O)=O)n1` (stereo partly drawn) [Example 137, N-(1-((2R)-4-(4-Chloro-3-(tetrahydro-1H-furo[3,4-c]pyrrol-5(3H)-yl)benzyl)-2-methylpiperazine-1-carbonyl)-1H-pyrazol-3-yl)methanesulfonamide], the inhibition at 1 µM on FAAH [1] was 0 to 25%; on MAGL [2], above 75%; at MAGL [3], above 75%; on FAAH [4] it was 0 to 25%. Also, on FAAH [5], the “FAAH % inh. 5 mg/kg (mouse)” value is “D (% inhibition is greater than or equal to 0% and less than 25%)”. For the same molecule, the “MAGL % inh. 5 mg/kg (mouse)” value at MAGL [6] is “D (% inhibition is greater than or equal to 0% and less than 25%)”.
For the molecule `C[C@@H]1CN(C(=O)n2ccc(NS(C)(=O)=O)n2)CCN1Cc1ccc(Cl)c(N2CCC(F)CC2)c1` [Example 138, (R)-N-(1-(4-(4-Chloro-3-(4-fluoropiperidin-1-yl)benzyl)-3-methylpiperazine-1-carbonyl)-1H-pyrazol-3-yl)methanesulfonamide], the inhibition at 1 µM was 0 to 25% at FAAH [1], above 75% on MAGL [2], above 75% on MAGL [3] and 0 to 25% at FAAH [4]. Moreover, the “FAAH % inh. 5 mg/kg (mouse)” value on FAAH [5] is “D (% inhibition is greater than or equal to 0% and less than 25%)”. The “MAGL % inh. 5 mg/kg (mouse)” value at MAGL [6] is recorded as “A (% inhibition is greater than or equal to 75%)”.
In general, IC50 refers to the point on the concentration scale where inhibition reaches its midpoint. Higher therefore signals weaker potency. As for `C[C@H](c1ccc(Cl)c(N2CCC(F)CC2)c1)N1CCN(C(=O)n2ccc(NS(C)(=O)=O)n2)CC1` [Example 139, (R)-N-(1-(4-(1-(4-Chloro-3-(4-fluoropiperidin-1-yl)phenyl)ethyl)piperazine-1-carbonyl)-1H-pyrazol-3-yl)methanesulfonamide], the inhibition at 1 µM at FAAH [1] was 0 to 25%; on MAGL [2], above 75%; at MAGL [3], above 75%; on FAAH [4], 0 to 25%. For the same molecule, the IC50 is below 0.1 µM at MAGL [3] and 1 to 10 µM on FAAH [4]. For the same molecule, the “FAAH % inh. 5 mg/kg (mouse)” value at FAAH [5] is “D (% inhibition is greater than or equal to 0% and less than 25%)”. In addition, at MAGL [6], the “MAGL % inh. 5 mg/kg (mouse)” value was “D (% inhibition is greater than or equal to 0% and less than 25%)”.
`CC1CN(C(=O)n2ccc(NS(C)(=O)=O)n2)CCN1Cc1ccc(C(F)(F)F)c(N2CCC(F)CC2)c1` (stereo not drawn) [Example 141, N-(1-(4-(3-(4-Fluoropiperidin-1-yl)-4-(trifluoromethyl)benzyl)-3-methylpiperazine-1-carbonyl)-1H-pyrazol-3-yl)methanesulfonamide]: the inhibition at 1 µM at FAAH [1] was 0 to 25%; at MAGL [2], above 75%; at MAGL [3] it was above 75%; at FAAH [4], 0 to 25%. In addition, the “FAAH % inh. 5 mg/kg (mouse)” value on FAAH [5] was “D (% inhibition is greater than or equal to 0% and less than 25%)”. The “MAGL % inh. 5 mg/kg (mouse)” value at MAGL [6] is “A (% inhibition is greater than or equal to 75%)”.
Take `C[C@H]1CN(C(=O)n2ccc(NS(C)(=O)=O)n2)CCN1Cc1ccc(Cl)c(N2CC3COCC3C2)c1` (stereo partly drawn) [Example 143, N-(1-((3S)-4-(4-Chloro-3-(tetrahydro-1H-furo[3,4-c]pyrrol-5(3H)-yl)benzyl)-3-methylpiperazine-1-carbonyl)-1H-pyrazol-3-yl)methanesulfonamide]: the inhibition at 1 µM on FAAH [1] was 0 to 25%; on MAGL [2], above 75%; at MAGL [3] it was above 75%; on FAAH [4], 0 to 25%. At FAAH [5], the “FAAH % inh. 5 mg/kg (mouse)” value is “D (% inhibition is greater than or equal to 0% and less than 25%)”. Also, the “MAGL % inh. 5 mg/kg (mouse)” value at MAGL [6] was “D (% inhibition is greater than or equal to 0% and less than 25%)”.
Take `C[C@H]1CN(C(=O)n2ccc(NS(C)(=O)=O)n2)CCN1Cc1ccc(Cl)c(N2CCC(F)CC2)c1` [Example 148, (S)-N-(1-(4-(4-Chloro-3-(4-fluoropiperidin-1-yl)benzyl)-3-methylpiperazine-1-carbonyl)-1H-pyrazol-3-yl)methanesulfonamide]: the inhibition at 1 µM was 0 to 25% on FAAH [1], above 75% at MAGL [2], above 75% on MAGL [3] and 0 to 25% on FAAH [4]. For the same molecule, the “FAAH % inh. 5 mg/kg (mouse)” value on FAAH [5] is “D (% inhibition is greater than or equal to 0% and less than 25%)”. The “MAGL % inh. 5 mg/kg (mouse)” value on MAGL [6] is “A (% inhibition is greater than or equal to 75%)”.
Regarding `CC(=O)Nc1ccn(C(=O)N2CC3CN(Cc4ccc(Cl)c(C(C)(C)O)c4)CC3C2)n1` (stereo not drawn) [Example 150, N-(1-(5-(4-Chloro-3-(2-hydroxypropan-2-yl)benzyl)octahydropyrrolo[3,4-c]pyrrole-2-carbonyl)-1H-pyrazol-3-yl)acetamide], the inhibition at 1 µM at FAAH [1] is 0 to 25%; at MAGL [2], above 75%; at MAGL [3], above 75%; at FAAH [4] it was 25 to 50%. For the same molecule, the IC50 on MAGL [3] is below 0.1 µM; on FAAH [4], 1 to 10 µM. Also, the “FAAH % inh. 5 mg/kg (mouse)” value at FAAH [5] was “D (% inhibition is greater than or equal to 0% and less than 25%)”. The “MAGL % inh. 5 mg/kg (mouse)” value on MAGL [6] is “D (% inhibition is greater than or equal to 0% and less than 25%)”.
For the molecule `CC(=O)Nc1ccn(C(=O)N2CCC3(CCN(C(=O)c4cc5ccc(C(F)(F)F)cc5s4)C3)CC2)n1` [Example 154, N-(1-(2-(6-(Trifluoromethyl)benzo[b]thiophene-2-carbonyl)-2,8-diazaspiro[4.5]decane-8-carbonyl)-1H-pyrazol-3-yl)acetamide], the inhibition at 1 µM is above 75% on FAAH [1], above 75% at MAGL [2], above 75% at MAGL [3] and 25 to 50% at FAAH [4]. Besides, the results for the 50% inhibitory concentration (IC50) on MAGL [3] and at FAAH [4] were below 0.1 µM and 1 to 10 µM, respectively. Further, the “FAAH % inh. 5 mg/kg (mouse)” value at FAAH [5] is “C (% inhibition is greater than or equal to 25% and less than 50%)”. Moreover, the “MAGL % inh. 5 mg/kg (mouse)” value at MAGL [6] is “B (% inhibition is greater than or equal to 50% and less than 75%)”.
